Data reported in article PMC5218480 (PLoS ONE, 2017).

System: MV-4-11 cells
Test: Gene expression microarray analysis (Affymetrix PrimeView) and GSEA
Format: cell-based, human
Set-up: RFU PODN (11730768_x_at) / Fold change /veh PODN (11730768_x_at) / RFU LINC00158 (11744669_a_at) / Fold change /veh LINC00158 (11744669_a_at) / RFU DUSP10 (11751237_a_at) / Fold change /veh DUSP10 (11751237_a_at) / RFU ID3 (11757404_x_at) / Fold change /veh ID3 (11757404_x_at) / RFU PLEKHG5 (11737974_s_at) / Fold change /veh PLEKHG5 (11737974_s_at) / RFU LRRC4B (11730491_at) / Fold change /veh LRRC4B (11730491_at) / RFU GIMAP4 (11747438_a_at) / Fold change /veh GIMAP4 (11747438_a_at) / RFU KRT8 (11758183_x_at) / Fold change /veh KRT8 (11758183_x_at) / RFU CNN1 (11734310_a_at) / Fold change /veh CNN1 (11734310_a_at) / RFU VPS37D (11726825_at) / Fold change /veh VPS37D (11726825_at) / RFU C10orf10 (11716522_x_at) / Fold change /veh C10orf10 (11716522_x_at) / RFU KIR2DL2 /// KIR2DL4 /// KIR2DL5A /// KIR2DL5B /// KIR2DS1 /// KIR2DS2 /// KIR2DS3 /// KIR2DS4 /// KIR3DL3 /// KIR3DL3 /// KIR3DS1 (11738374_at) / Fold change /veh KIR2DL2 /// KIR2DL4 /// KIR2DL5A /// KIR2DL5B /// KIR2DS1 /// KIR2DS2 /// KIR2DS3 /// KIR2DS4 /// KIR3DL3 /// KIR3DL3 /// KIR3DS1 (11738374_at) / RFU C1QL1 (11718748_at) / Fold change /veh C1QL1 (11718748_at) / RFU TMPRSS4 (11747572_a_at) / Fold change /veh TMPRSS4 (11747572_a_at) / RFU HAMP (11756126_x_at) / Fold change /veh HAMP (11756126_x_at) / RFU RNFT2 (11725882_a_at) / Fold change /veh RNFT2 (11725882_a_at) / RFU NR4A2 (11747474_a_at) / Fold change /veh NR4A2 (11747474_a_at) / RFU ABCC12 (11746883_a_at) / Fold change /veh ABCC12 (11746883_a_at) / RFU TMEM136 (11760407_x_at) / Fold change /veh TMEM136 (11760407_x_at) / RFU CLDN22 /// WWC2 (11732394_at) / Fold change /veh CLDN22 /// WWC2 (11732394_at) / RFU HLA-DPB1 (11760878_x_at) / Fold change /veh HLA-DPB1 (11760878_x_at) / RFU SPINT1 (11716480_a_at) / Fold change /veh SPINT1 (11716480_a_at) / RFU GAP43 (11754022_s_at) / Fold change /veh GAP43 (11754022_s_at) / RFU A4GNT (11735810_at) / Fold change /veh A4GNT (11735810_at) / RFU PRB3 (11715151_x_at) / Fold change /veh PRB3 (11715151_x_at) / RFU TUBB4B (11761932_at) / Fold change /veh TUBB4B (11761932_at) / RFU CAPN14 (11732068_a_at) / Fold change /veh CAPN14 (11732068_a_at) / RFU TMCC2 (11721928_a_at) / Fold change /veh TMCC2 (11721928_a_at) / RFU IRGQ (11745062_a_at) / Fold change /veh IRGQ (11745062_a_at) / RFU FAM174B (11720279_a_at) / Fold change /veh FAM174B (11720279_a_at) / RFU TMPRSS4 (11748680_a_at) / Fold change /veh TMPRSS4 (11748680_a_at) / RFU FAM212B (11763350_a_at) / Fold change /veh FAM212B (11763350_a_at) / RFU PLEKHG5 (11743358_a_at) / Fold change /veh PLEKHG5 (11743358_a_at) / RFU ZSCAN30 (11745921_a_at) / Fold change /veh ZSCAN30 (11745921_a_at) / RFU CMKLR1 (11741424_a_at) / Fold change /veh CMKLR1 (11741424_a_at) / RFU LOC101060620 /// MAPK8IP1 (11723275_at) / Fold change /veh LOC101060620 /// MAPK8IP1 (11723275_at) / RFU SPTSSB (11747773_x_at) / Fold change /veh SPTSSB (11747773_x_at) / RFU PRSS12 (11739890_at) / Fold change /veh PRSS12 (11739890_at) / RFU BIN1 (11741810_x_at) / Fold change /veh BIN1 (11741810_x_at) / RFU WNT11 (11732464_a_at) / Fold change /veh WNT11 (11732464_a_at) / RFU C10orf10 (11716521_a_at) / Fold change /veh C10orf10 (11716521_a_at) / RFU C5orf56 (11738089_at) / Fold change /veh C5orf56 (11738089_at) / RFU CYB561 (11721691_x_at) / Fold change /veh CYB561 (11721691_x_at) / RFU ANKRD19P (11752326_a_at) / Fold change /veh ANKRD19P (11752326_a_at) / RFU OR2T12 /// OR2T33 /// OR2T8 (11738714_s_at) / Fold change /veh OR2T12 /// OR2T33 /// OR2T8 (11738714_s_at) / RFU VCAN (11748164_a_at) / Fold change /veh VCAN (11748164_a_at) / RFU JSRP1 (11732532_at) / Fold change /veh JSRP1 (11732532_at) / RFU KRTAP10-11 (11738290_x_at) / Fold change /veh KRTAP10-11 (11738290_x_at) / RFU MYO3A (11730013_a_at) / Fold change /veh MYO3A (11730013_a_at) / RFU EBF3 (11725865_a_at) / Fold change /veh EBF3 (11725865_a_at) / RFU CAMK2N1 (11719241_x_at) / Fold change /veh CAMK2N1 (11719241_x_at) / RFU C5orf56 (11738088_a_at) / Fold change /veh C5orf56 (11738088_a_at) / RFU OLFML3 (11715873_a_at) / Fold change /veh OLFML3 (11715873_a_at) / RFU LOC100653217 /// NTM (11731650_a_at) / Fold change /veh LOC100653217 /// NTM (11731650_a_at) / RFU MAPK11 (11762145_a_at) / Fold change /veh MAPK11 (11762145_a_at) / RFU FIZ1 (11724087_x_at) / Fold change /veh FIZ1 (11724087_x_at) / RFU OASL (11726364_x_at) / Fold change /veh OASL (11726364_x_at) / RFU SOX15 (11748057_x_at) / Fold change /veh SOX15 (11748057_x_at) / RFU CD79A (11719716_a_at) / Fold change /veh CD79A (11719716_a_at) / RFU HIST1H1D (11736915_at) / Fold change /veh HIST1H1D (11736915_at) / RFU CASKIN2 (11723855_a_at) / Fold change /veh CASKIN2 (11723855_a_at) / RFU LOC730098 (11760151_x_at) / Fold change /veh LOC730098 (11760151_x_at) / RFU OR4N2 (11742367_at) / Fold change /veh OR4N2 (11742367_at) / RFU PRRT2 (11749266_a_at) / Fold change /veh PRRT2 (11749266_a_at) / RFU SNX32 (11753110_a_at) / Fold change /veh SNX32 (11753110_a_at) / RFU CDHR5 (11726645_a_at) / Fold change /veh CDHR5 (11726645_a_at) / RFU RCAN1 (11760418_a_at) / Fold change /veh RCAN1 (11760418_a_at) / RFU FAM167A (11723789_a_at) / Fold change /veh FAM167A (11723789_a_at) / RFU FAM26E (11764081_at) / Fold change /veh FAM26E (11764081_at) / RFU ISYNA1 (11749810_s_at) / Fold change /veh ISYNA1 (11749810_s_at) / RFU ACY1 (11761880_at) / Fold change /veh ACY1 (11761880_at) / RFU 11764098_at / Fold change /veh 11764098_at / RFU SAMD14 (11745864_x_at) / Fold change /veh SAMD14 (11745864_x_at) / RFU NPB (11741838_a_at) / Fold change /veh NPB (11741838_a_at) / RFU TMPRSS6 (11731388_a_at) / Fold change /veh TMPRSS6 (11731388_a_at) / RFU KRTAP10-2 (11738614_at) / Fold change /veh KRTAP10-2 (11738614_at) / RFU ARHGAP8 /// PRR5-ARHGAP8 (11727945_x_at) / Fold change /veh ARHGAP8 /// PRR5-ARHGAP8 (11727945_x_at) / RFU KRTAP5-7 /// NADSYN1 (11734609_at) / Fold change /veh KRTAP5-7 /// NADSYN1 (11734609_at) / RFU RASL12 (11751679_a_at) / Fold change /veh RASL12 (11751679_a_at) / RFU CDKN2B (11736163_a_at) / Fold change /veh CDKN2B (11736163_a_at) / RFU PRF1 (11729649_at) / Fold change /veh PRF1 (11729649_at) / RFU, ZNF638 /// ZNF638-IT1 / Fold change vs veh, ZNF638 /// ZNF638-IT1 / RFU, PANK3 / Fold change vs veh, PANK3 / RFU, SH3YL1 / Fold change vs veh, SH3YL1 / RFU, ZEB2 / Fold change vs veh, ZEB2 / RFU, NRIP1 / Fold change vs veh, NRIP1 / RFU, PTTG1IP / Fold change vs veh, PTTG1IP / RFU, CAPN2 / Fold change vs veh, CAPN2 / RFU, MED14 / Fold change vs veh, MED14 / RFU, SNORA58 / Fold change vs veh, SNORA58 / RFU, C1orf63 / Fold change vs veh, C1orf63 / RFU, LRRFIP1 / Fold change vs veh, LRRFIP1 / RFU, NDUFAF7 / Fold change vs veh, NDUFAF7 / RFU, SLC12A2 / Fold change vs veh, SLC12A2 / RFU, IBTK / Fold change vs veh, IBTK / RFU, ESF1 / Fold change vs veh, ESF1 / Fold change vs veh, TMEM50B / RFU, TAOK1 / Fold change vs veh, TAOK1 / RFU, ACBD3 / Fold change vs veh, ACBD3 / RFU, TMA16 / Fold change vs veh, TMA16 / RFU, RWDD3 / Fold change vs veh, RWDD3 / RFU, BCAT1 / Fold change vs veh, BCAT1 / RFU, EDEM3 / Fold change vs veh, EDEM3 / RFU, TMEM33 / Fold change vs veh, TMEM33 / RFU, WDR75 / Fold change vs veh, WDR75 / RFU, AHCTF1 / Fold change vs veh, AHCTF1 / RFU, TFRC / Fold change vs veh, TFRC / RFU, ZDHHC17 / Fold change vs veh, ZDHHC17 / RFU, NOM1 / Fold change vs veh, NOM1 / RFU, ARL8B / Fold change vs veh, ARL8B / RFU, ZBTB11 / Fold change vs veh, ZBTB11 / RFU, TAMM41 / Fold change vs veh, TAMM41 / RFU, KIAA1704 /// LOC100996395 / Fold change vs veh, KIAA1704 /// LOC100996395 / RFU, ING1 / Fold change vs veh, ING1 / RFU, TRMT61B / Fold change vs veh, TRMT61B / RFU, FUBP3 / Fold change vs veh, FUBP3 / RFU, TP53 / Fold change vs veh, TP53 / RFU, TNKS2 / Fold change vs veh, TNKS2 / RFU, ZFP14 / Fold change vs veh, ZFP14 / RFU, ACTR2 / Fold change vs veh, ACTR2 / RFU, PPP3R1 / Fold change vs veh, PPP3R1 / RFU, PIK3R1 / Fold change vs veh, PIK3R1 / RFU, HNRNPA1 / Fold change vs veh, HNRNPA1 / RFU, RNF170 / Fold change vs veh, RNF170 / RFU, ZNF28 / Fold change vs veh, ZNF28 / RFU, RNGTT / Fold change vs veh, RNGTT / RFU, OGT / Fold change vs veh, OGT / RFU, BRD1 / Fold change vs veh, BRD1 / RFU, MARS / Fold change vs veh, MARS / RFU, ZNF655 / Fold change vs veh, ZNF655 / RFU, FAHD1 / Fold change vs veh, FAHD1 / RFU, BDP1 / Fold change vs veh, BDP1 / RFU, LRRCC1 / Fold change vs veh, LRRCC1 / RFU, ARID1A / Fold change vs veh, ARID1A / RFU, ZNF146 / Fold change vs veh, ZNF146 / RFU, ZNF330 / Fold change vs veh, ZNF330 / RFU, GPN3 / Fold change vs veh, GPN3 / RFU, C9orf123 / Fold change vs veh, C9orf123 / RFU, N4BP2L2 / Fold change vs veh, N4BP2L2 / RFU, ARFIP1 / Fold change vs veh, ARFIP1 / RFU, FAM179B / Fold change vs veh, FAM179B / RFU, BCL10 / Fold change vs veh, BCL10 / RFU, UHRF1BP1L / Fold change vs veh, UHRF1BP1L / RFU, BET1 / Fold change vs veh, BET1 / RFU, CNOT2 / Fold change vs veh, CNOT2 / RFU, ZNF268 / Fold change vs veh, ZNF268 / Fold change vs veh, ZNF507 / RFU, DGCR2 / Fold change vs veh, DGCR2 / RFU, WDSUB1 / Fold change vs veh, WDSUB1 / Fold change vs veh, HSP90B1 /// MIR3652 / RFU, ADSS / Fold change vs veh, ADSS / RFU, GK / Fold change vs veh, GK / RFU, ZNF148 / Fold change vs veh, ZNF148 / RFU, TAF9 / Fold change vs veh, TAF9 / RFU, SLC1A5 / Fold change vs veh, SLC1A5 / RFU, SLMO2 / Fold change vs veh, SLMO2 / RFU, ABCC4 / Fold change vs veh, ABCC4 / RFU, LOC101060439 /// RAP1B / Fold change vs veh, LOC101060439 /// RAP1B / RFU, RFX7 / Fold change vs veh, RFX7 / RFU, GTPBP10 / Fold change vs veh, GTPBP10 / RFU, CNEP1R1 / Fold change vs veh, CNEP1R1 / RFU, BIVM-ERCC5 /// ERCC5 / Fold change vs veh, BIVM-ERCC5 /// ERCC5 / RFU, ILF3 / Fold change vs veh, ILF3 / RFU 11762660_at / Fold change /veh 11762660_at / RFU VCAN (11757783_s_at) / Fold change /veh VCAN (11757783_s_at) / RFU DDX43 (11728927_at) / Fold change /veh DDX43 (11728927_at) / RFU KRT8 (11758188_x_at) / Fold change /veh KRT8 (11758188_x_at) / RFU NKD1 (11759106_at) / Fold change /veh NKD1 (11759106_at) / RFU SRD5A1 (11742802_a_at) / Fold change /veh SRD5A1 (11742802_a_at) / RFU TPSAB1 /// TPSB2 (11721975_s_at) / Fold change /veh TPSAB1 /// TPSB2 (11721975_s_at) / RFU GSTM3 (11746129_a_at) / Fold change /veh GSTM3 (11746129_a_at) / RFU IL23R (11737362_x_at) / Fold change /veh IL23R (11737362_x_at) / RFU TMEM51 (11727254_a_at) / Fold change /veh TMEM51 (11727254_a_at) / RFU PIWIL2 (11732686_x_at) / Fold change /veh PIWIL2 (11732686_x_at) / RFU ORM1 (11744905_x_at) / Fold change /veh ORM1 (11744905_x_at) / RFU CCDC152 (11743942_at) / Fold change /veh CCDC152 (11743942_at) / RFU ECM1 (11717891_a_at) / Fold change /veh ECM1 (11717891_a_at) / RFU IL23R (11748794_a_at) / Fold change /veh IL23R (11748794_a_at) / RFU TNFAIP8L3 (11732012_x_at) / Fold change /veh TNFAIP8L3 (11732012_x_at) / RFU MBOAT4 (11741988_at) / Fold change /veh MBOAT4 (11741988_at) / RFU 11764193_at / Fold change /veh 11764193_at / RFU TMEM53 (11763286_at) / Fold change /veh TMEM53 (11763286_at) / RFU MAGEB2 (11727129_at) / Fold change /veh MAGEB2 (11727129_at) / RFU TMEM200A (11744735_a_at) / Fold change /veh TMEM200A (11744735_a_at) / RFU CCDC152 (11751479_a_at) / Fold change /veh CCDC152 (11751479_a_at) / RFU FAM211A (11726209_a_at) / Fold change /veh FAM211A (11726209_a_at) / RFU RGS16 (11746705_a_at) / Fold change /veh RGS16 (11746705_a_at) / RFU VCAN (11755009_s_at) / Fold change /veh VCAN (11755009_s_at) / RFU RHOB (11743442_s_at) / Fold change /veh RHOB (11743442_s_at) / RFU RGS16 (11720943_a_at) / Fold change /veh RGS16 (11720943_a_at) / RFU RGS16 (11720944_at) / Fold change /veh RGS16 (11720944_at) / RFU, VPS4B / Fold change vs veh, VPS4B / RFU, CREB1 / Fold change vs veh, CREB1 / RFU, DNAJC13 / Fold change vs veh, DNAJC13 / RFU, GNAQ / Fold change vs veh, GNAQ / RFU, CDK5R1 / Fold change vs veh, CDK5R1 / RFU, ZRANB3 / Fold change vs veh, ZRANB3 / RFU, CUL4A / Fold change vs veh, CUL4A / RFU, CCNY / Fold change vs veh, CCNY / RFU, UFL1 / Fold change vs veh, UFL1 / RFU, COG3 / Fold change vs veh, COG3 / RFU, DIAPH2 / Fold change vs veh, DIAPH2 / RFU, SKA2 / Fold change vs veh, SKA2 / RFU, AFF3 / Fold change vs veh, AFF3 / RFU, LMF1 / Fold change vs veh, LMF1 / RFU, IPO11 / Fold change vs veh, IPO11 / RFU, DFFB / Fold change vs veh, DFFB / RFU, FOXP1 / Fold change vs veh, FOXP1 / RFU, CARD8 / Fold change vs veh, CARD8 / RFU, STRN3 / Fold change vs veh, STRN3 / RFU, ADK / Fold change vs veh, ADK / RFU, RASSF2 / Fold change vs veh, RASSF2 / RFU, WIPF1 / Fold change vs veh, WIPF1 / RFU, LARP1B / Fold change vs veh, LARP1B / RFU, RASA1 / Fold change vs veh, RASA1 / RFU, RB1 / Fold change vs veh, RB1 / RFU, PPFIA1 / Fold change vs veh, PPFIA1 / RFU, MAT2A / Fold change vs veh, MAT2A / RFU, CCT5 / Fold change vs veh, CCT5 / RFU, WDR92 / Fold change vs veh, WDR92 / RFU, CUX1 / Fold change vs veh, CUX1 / RFU, TTC7A / Fold change vs veh, TTC7A / RFU, TMEM135 / Fold change vs veh, TMEM135 / RFU, DEPTOR / Fold change vs veh, DEPTOR / RFU, CPM / Fold change vs veh, CPM / RFU, DNAJB6 / Fold change vs veh, DNAJB6 / RFU, CACNA2D3 / Fold change vs veh, CACNA2D3 / RFU, DTX4 / Fold change vs veh, DTX4 / RFU, TFCP2 / Fold change vs veh, TFCP2 / RFU, GMCL1 /// GMCL1P1 / Fold change vs veh, GMCL1 /// GMCL1P1 / RFU, AEBP2 / Fold change vs veh, AEBP2 / RFU, SNHG1 /// SNORD22 /// SNORD25 /// SNORD26 /// SNORD27 /// SNORD28 /// SNORD29 /// SNORD31 / Fold change vs veh, SNHG1 /// SNORD22 /// SNORD25 /// SNORD26 /// SNORD27 /// SNORD28 /// SNORD29 /// SNORD31 / Fold change (Aza/veh), C12orf56 (ProbeSet 11735607_a_at) / Fold change (ACY-1035/veh), C12orf56 (ProbeSet 11735607_a_at) / Fold change (Aza/veh), FGFR1OP (ProbeSet 11751329_s_at) / Fold change (ACY-1035/veh), FGFR1OP (ProbeSet 11751329_s_at) / Fold change (Aza/veh), VPS36 (ProbeSet 11739960_a_at) / Fold change (ACY-1035/veh), VPS36 (ProbeSet 11739960_a_at) / RFU SYPL1 (11715823_x_at) / Fold change /veh SYPL1 (11715823_x_at) / RFU IGFBP7 (11715501_s_at) / Fold change /veh IGFBP7 (11715501_s_at) / RFU REEP3 (11722064_at) / Fold change /veh REEP3 (11722064_at) / RFU IGLL1 (11728026_x_at) / Fold change /veh IGLL1 (11728026_x_at): dose or concentration left out as unconfirmed
Details: ProbeSet 11717523_x_at; LIST B

## Nc1ncn([C@@H]2O[C@H](CO)[C@@H](O)[C@H]2O)c(=O)n1 [azacitidine]
  Fold change vs veh, TMEM50B: 0.85
